The values below come from patent US4198431A, “Alkyl N-(3-trifluoromethylphenyl)-anthranilate” (Hokuriku Pharmaceutical Co., Ltd., priority 1978, dated 1980).

Like-named read-outs stand apart in the source and are kept apart here.

A short description of data set [1]: Acute toxicity (LD50) after oral administration. The class given is in vivo. The conditions noted are these: mouse, in vivo. The text has this: (§1) Using ddY type male mice, acute toxicity (LD50) was examined after oral administration of the methyl, ethyl and butyl esters, respectively.
(§2) In a similar manner, LD50 was examined with regard to the C5 -C8 higher alkyl esters.

For data set [2], the system named is ddY type male mice. Nature of the data set: Acute toxicity (LD50) after oral administration. The class given is in vivo. As to conditions: oral, mice; comparison with methyl or ethyl ester.
Text: as §1, §2

Data set [3] relates to carrageenin edema. The data set can be described thus: Carrageenin edema-preventing effect, 5% ointment (Table 2). The format is in vivo, rat (Wistar, female). The conditions noted are these: for swelling percent (rate of volume increase), 1 hr / preventing rate (rate of edema prevention), 1 hr / swelling percent (rate of volume increase), 2 hr / preventing rate (rate of edema prevention), 2 hr / swelling percent (rate of volume increase), 3 hr / preventing rate (rate of edema prevention), 3 hr / swelling percent (rate of volume increase), 4 hr / preventing rate (rate of edema prevention), 4 hr / swelling percent (rate of volume increase), 5 hr / preventing rate (rate of edema prevention), 5 hr: 5% ointment, 50 mg/rat; for swelling percent (rate of volume increase), 1 hr / swelling percent (rate of volume increase), 2 hr / swelling percent (rate of volume increase), 3 hr / swelling percent (rate of volume increase), 4 hr / swelling percent (rate of volume increase), 5 hr: sole of rear paws; for swelling percent (rate of volume increase), 1 hr: control 37.1%; for preventing rate (rate of edema prevention), 1 hr / preventing rate (rate of edema prevention), 2 hr / preventing rate (rate of edema prevention), 3 hr / preventing rate (rate of edema prevention), 4 hr / preventing rate (rate of edema prevention), 5 hr: calculated in contrast to control; for swelling percent (rate of volume increase), 2 hr: control 74.4%; for swelling percent (rate of volume increase), 3 hr: control 83.9%; for swelling percent (rate of volume increase), 4 hr: control 83.3%; for swelling percent (rate of volume increase), 5 hr: control 80.8%. The protocol:
Next, the carrageenin edema-preventing effect [E. Yamazaki, et al., Folia Pharmacologica Japonica, vol. 63, page 302 (1967)] was examined using an ointment containing a five-percent(5%) concentration of active ingredient. Using ten (10) Wistar female rats as one grouping, each test compound was applied at the rate of fifty (50) mg/rat onto the sole of the rear paws […] (30) minutes. After carrageenin was subcutaneously administered (1% carrageenin: 0.1 ml/rat) at the ointment-administered area, the volume was measured over a period of five (5) hours, during which a definite amount (50 mg/rat) of each test compound was administered every hour over a period of four (4) hours after the first measurement of the paw volume. The edema-preventing effect was thus determined in contrast to known compounds. In Table 2 following, the swelling percent (rate of volume increase) is given. The figures in parenthesis indicate the rate of edema prevention which was calculated in contrast to control. In control, carrageenin alone was administered.

The test system of data set [4] is carrageenin edema. Nature of the data set: Carrageenin edema-preventing effect of ointment, comparison with Bufexamac (Table 3). The conditions noted are these: ointment 50 mg applied 3, 2 and 1 hours before carrageenin; for swelling (paw volume increase), 1 hr: control 48%; for swelling (paw volume increase), 2 hr: control 90%, ***p 0.02; for swelling (paw volume increase), 3 hr: control 95%, **p 0.05; for swelling (paw volume increase), 4 hr: control 91%; for swelling (paw volume increase), 5 hr: control 88%. The class given is in vivo, rat (Wistar, male). The protocol:
The butyl ester of the invention and Bufexamac were further compared in ointment form with respect to the edema-preventing effect thereof. Using eight (8) Wistar male rats, weighing 120 to 140 g., as one grouping, 50 mg. each of the test ointments was applied onto the sole of rear paws 3, 2 and 1 hours before an agent which induced inflammation was administered, after the paw volume at one side was measured. Carrageenin (1%: 0.1 ml.) was subcutaneously administered as the inflammation-inducingagent. Thereafter, the paw volume was again measured every hour over a period of five (5) hours. An edema-preventing rate was determined from the volume prior to administration of the inflammation-inducing agent.
(The carrageenan paw model is a standard test of acute inflammation.)

The mark [5] stands for this setting: oral, ddY type male mice, 95% confidence limit in parentheses, read-out: LD50 (95% Confidence Limit).

For the molecule `CCCCOC(=O)c1ccccc1Nc1cccc(C(F)(F)F)c1` [Compound of Invention, n-Butyl N-(3-trifluoromethylphenyl)anthranilate], the LD50 in data set [1] (setting [5]) stood at 3100 mg/kg. In addition, the “LD50 relative to that of the corresponding methyl or ethyl ester” value in data set [2] is listed as 1/2. Moreover, in data set [3], the “swelling percent (rate of volume increase), 1 hr” value is listed as 23.5%; the preventing rate (rate of edema prevention), 1 hr is 36.7%; the “swelling percent (rate of volume increase), 2 hr” value turned out to be 47.3%; the preventing rate (rate of edema prevention), 2 hr was 36.4%. Moreover, in data set [3], the “swelling percent (rate of volume increase), 3 hr” value stood at 54.8%; the preventing rate (rate of edema prevention), 3 hr is 34.7%; the “swelling percent (rate of volume increase), 4 hr” value came to 55.5%; the preventing rate (rate of edema prevention), 4 hr is 33.4%. Moreover, in data set [3], the “swelling percent (rate of volume increase), 5 hr” value came to 50.0% and the preventing rate (rate of edema prevention), 5 hr was 38.1%. The “edema-preventing effect as compared to the known compound” value in data set [3] (versus N-(3-trifluoromethylphenyl)anthranilic acid, Table 2) is “improved edema-preventing effect”. In data set [4], the preventing rate (edema-preventing rate), 1 hr was determined as 10.4%; the “swelling (paw volume increase), 1 hr” value is 43%; the preventing rate (edema-preventing rate), 2 hr turned out to be 30%; the “swelling (paw volume increase), 2 hr” value amounted to 63%. Also, in data set [4], the preventing rate (edema-preventing rate), 3 hr came to 28.4%; the “swelling (paw volume increase), 3 hr” value is on record as 68%; the preventing rate (edema-preventing rate), 4 hr is 24.2%; the “swelling (paw volume increase), 4 hr” value was found to be 69%. Also, in data set [4], the preventing rate (edema-preventing rate), 5 hr came out at 22.7% and the “swelling (paw volume increase), 5 hr” value was determined as 68%.
With `CCCCCCCCOC(=O)c1ccccc1Nc1cccc(C(F)(F)F)c1` [Example 12], the LD50 in data set [1] (po, n-octyl ester, examined in a similar manner, read-out: LD50) was about 5000 mg/kg.
Take `COC(=O)c1ccccc1Nc1cccc(C(F)(F)F)c1` [I, Methyl N-(3-trifluoromethylphenyl)anthranilate, reference compound]: the LD50 in data set [1] (setting [5]) came out at 1620 mg/kg.
Regarding `O=C(O)c1ccccc1Nc1cccc(C(F)(F)F)c1` [N-(3-trifluoromethylphenyl)anthranilic acid, reference compound], in data set [3], the “swelling percent (rate of volume increase), 1 hr” value worked out at 28.4%; the preventing rate (rate of edema prevention), 1 hr is 23.5%; the “swelling percent (rate of volume increase), 2 hr” value is recorded as 61.8%; the preventing rate (rate of edema prevention), 2 hr was 16.9%. Besides, in data set [3], the “swelling percent (rate of volume increase), 3 hr” value was determined as 62.3%; the preventing rate (rate of edema prevention), 3 hr was 25.8%; the “swelling percent (rate of volume increase), 4 hr” value came out at 61.4%; the preventing rate (rate of edema prevention), 4 hr was 26.3%. Besides, in data set [3], the “swelling percent (rate of volume increase), 5 hr” value is on record as 61.2% and the preventing rate (rate of edema prevention), 5 hr was 24.2%.
In the case of `CCCCOc1ccc(CC(=O)NO)cc1` [Bufexamac, reference compound], in data set [4], the preventing rate (edema-preventing rate), 1 hr came out at 10.4%; the “swelling (paw volume increase), 1 hr” value is 43%; the preventing rate (edema-preventing rate), 2 hr was determined as 18.9%; the “swelling (paw volume increase), 2 hr” value was 73%. For the same molecule, in data set [4], the preventing rate (edema-preventing rate), 3 hr came out at 18.9%; the “swelling (paw volume increase), 3 hr” value is 76%; the preventing rate (edema-preventing rate), 4 hr stood at 16.5%; the “swelling (paw volume increase), 4 hr” value stood at 76%. Besides, in data set [4], the preventing rate (edema-preventing rate), 5 hr worked out at 17.2% and the “swelling (paw volume increase), 5 hr” value was 72%.
Turning to `CCOC(=O)c1ccccc1Nc1cccc(C(F)(F)F)c1` [II, Ethyl N-(3-trifluoromethylphenyl)anthranilate, reference compound], the LD50 in data set [1] (setting [5]) stood at 1820 mg/kg.

What is called LD50 is the dose expected to kill half of the subjects tested.
